Data as given in patent publication US20060147479A1, “Angiogenic medical cyanoacrylate adhesive” (priority 2002, published 2006).

Key:
angiogenesis = settings: cited from earlier work
[1] = Bond strength of tributyrin/cyanoacrylate blend on costal cartilage (Nene MC3000); format: physicochemical; settings: 5% to 50% (w/w) tributyrin in cyanoacrylate; held 1 minute, cured an additional hour in aqueous conditions
Experimental: 0.5 g of the sterile tributyrin was added to cyanoacrylate (9.5 g) to produce a 5% (w/w) blend in a sterile plastic universal tube. This was mixed for 2 minutes to ensure a homogenous blend. 40 μl aliquots of the blended adhesive were applied to freshly cut surfaces of costal cartilage. The two surfaces were held together for 1 minute allowing fixation and curing was allowed to continue for an additional hour in aqueous conditions. The bond strength was tested using a Nene MC3000 machine, where the applied force required to separate the bonded pieces of cartilage was recorded.

[2] = Release of tributyrin from cured blended adhesive disks into water, gas chromatography; format: physicochemical; settings: 5% w/w tributyrin cyanoacrylate sample; 2 ml water, 50° C., 1, 5 or 7 days with continuous agitation
Experimental: 0.5g of the sterile tributyrin was added to cyanoacrylate (9.5 g) to produce a 5% (w/w) blend in a sterile plastic universal tube. This was mixed for 2 minutes to ensure a homogenous blend. Small disks of the blended adhesive were cast onto a basic solution (dilute triethylamine 0.1% aq). The disks were removed, washed briefly and dried. The disks were then placed into 2 ml water and stored at 50° C. for 1, 5 or 7 days with continuous agitation. The water was removed then added to 2 mls dichloromethane in order to extract any released tributyrin. The dichloromethane layer was analysed using gas chromatography and the amount of tributyrin recorded. The disks were dried and then placed into fresh water at 50° C. for an additional day. The amount of tributyrin released into the fresh water was measured as described for the first samples.

[3] = Premature curing of cyanoacrylate by angiogenic agent; format: physicochemical; settings: in combination with cyanoacrylate

Row | SMILES | local release sufficient to achieve the desired angiogenic effect (angiogenesis) | adhesive property (bond strength; applied force required to separate the bonded pieces of cartilage) [1] | tributyrin released from cured adhesive disks [2] | premature cure of cyanoacrylate [3]
1 | CCCC(=O)O [butyric acid, butanoic acid] | 10 to 1000 ng | – | – | –
2 | CCCC(=O)OCC(COC(=O)CCC)OC(=O)CCC [tributyrin, glcerol tributyrate; 1,2,3-(propyl)tributanoate] | – | without an unacceptable loss of adhesive property | released from a 5% w/w tributyrin cyanoacrylate sample over a 7 day period | do not cause cyanoacrylate to prematurely cure
